Values of other authors as cited in US6923993B2, “Process of isolating extract from the Euphorbia obesa plant and methods for using the same” (priority 2001, dated 2005).

Legend:
[1] = doses of 0.5 to 1 mg
skin of mice = conditions: topically applied
myelocytic leukemia = conditions: intravenous 1 mg; patients refractory to cytosine arabinoside, retinoic acid and other antileukemic drugs
[2] = system: HL-60 human promyelocytic leukemia cells; conditions: in vitro
[3] = system: white blood cell (WBC) count; conditions: intravenous; patients with low WBC after cytotoxic chemotherapy

## CCCCCCCCCCCCCC(=O)O[C@@H]1[C@@H](C)[C@@]2(O)[C@@H](C=C(CO)C[C@]3(O)C(=O)C(C)=C[C@@H]23)[C@H]2C(C)(C)[C@]12OC(C)=O [TPA, 12-O-tetradecanoyl-13-phorbol acetate]
[1]
  toxicity in vivo: toxic effects
Skin of mice
  effect on mouse skin: tumor promoter
Myelocytic leukemia
  activity in myelocytic leukemia patients: pharmacological activity
[2]
  differentiation and DNA synthesis of HL-60 cells: stimulate differentiation and inhibit DNA synthesis
[3]
  WBC count and neutrophils in the blood: increase in WBC count and neutrophilia
